Here are results for 52 compounds from PubChem BioAssay AID1996.

≈ marks a conversion by molar mass, not a printed value.

The conditions of the data set: buffer; pH 7.4; 200.0 µM.
As to `O=S(=O)(NC1CCCCC1N1CCCCC1)c1ccccc1` (configuration not stated), the solubility (kinetic) is > 48.4 µg/mL.
The same measure for `O=C(Nc1cccc(F)c1)C1CCCN(c2cnccn2)C1` (configuration not stated): > 45.1 µg/mL; for `Cc1ccc(-c2nc3ncccc3o2)cc1NC(=O)c1cccnc1`: 7.6 µg/mL (≈ 23 µM); for `COc1cc(NC(=O)/C=C/c2ccccc2)c(C(=O)O)cc1OC`: > 49.1 µg/mL.
`O=C(CCNC(=O)c1ccco1)Nc1nc2ccccc2s1` returned a solubility (kinetic) of 4.5 µg/mL (≈ 14.3 µM).
In turn, `Cc1ccc(OCC(=O)NCCNC(=O)c2cnccn2)cc1C` gave a kinetic solubility of 46.3 µg/mL (≈ 141 µM).
Regarding `CCC1(c2ccccc2)C(=O)NCNC1=O`, the kinetic solubility was > 32.7 µg/mL.
Then `CC(C)c1cc(=O)[nH]c(N2CCN(Cc3ccc4c(c3)OCO4)CC2)n1`, with 49.9 µg/mL (≈ 140 µM); and `CN1C(=O)C(c2ccccc2[N+](=O)[O-])C(=O)c2ccccc21` (configuration not stated), with > 44.4 µg/mL.
The same measure for `COc1ccccc1C(C)NC(=O)Cc1ccsc1` (configuration not stated): > 41.3 µg/mL; for `Cn1ccsc1=NC(=O)c1cccc(C#N)c1`: > 36.5 µg/mL.
`Nc1ccccc1C(=O)NC12CC3CC(CC(C3)C1)C2` registered a solubility (kinetic) of 28.7 µg/mL (≈ 106 µM).
As to `Cc1ccccc1C(=O)OC1CCN(C)CC1.Cl`, the kinetic solubility was > 40.5 µg/mL.
The same measure for `COc1ccc(CNC2CC(C)N(C)CC2C)cc1OC.Cl` (configuration not stated): 50.9 µg/mL.
Take `CCc1nc(SCC(=O)OC)c2c3c(sc2n1)COC(C)(C)C3`: the kinetic solubility turned out to be 7.4 µg/mL (≈ 21 µM).
The same measure for `CC1(C)CC(=O)N(c2ccc(Cl)cc2Cl)C(=O)C1`: > 42.9 µg/mL; for `CC(C)C(=O)Nc1ccc(NC(=O)c2ccc3c(c2)OCO3)cc1`: < 0.3 µg/mL.
The same measure for `CC(C)C(=O)N1CCN(c2ccccc2NC(=O)c2ccc(Br)o2)CC1`: 52.2 µg/mL (≈ 124 µM); for `Cc1ccc(C)c(NC(=O)c2cnccn2)c1`: 23.9 µg/mL (≈ 105 µM).
Then `N#CCOC(=O)c1c2c(nc3ccccc13)CCC2`, with 30.1 µg/mL (≈ 119 µM).
On to `Cn1cccc1C(=O)Nc1ccc(Cl)c(S(=O)(=O)N2CCCCC2)c1`, for which the solubility (kinetic) amounted to 8.7 µg/mL (≈ 22.8 µM).
Consider `COc1ccc(CC(=O)NCCc2ccc(OC)c(OC)c2)cc1`, for which the solubility (kinetic) was > 49.4 µg/mL.
For `CCCSC1=C(C#N)C2(CCCCC2)C(C#N)=C(N)N1`, the kinetic solubility is > 43.3 µg/mL.
The same measure for `CCC(=O)c1ccc(OCC(=O)NCc2ccccc2CN2CCCC2)cc1`: > 57.1 µg/mL; for `Nn1c(C2CCCCC2)nc2ccccc2c1=O`: > 36.5 µg/mL.
The same measure for `O=C(C1CC1)N(Cc1nc2ccccc2c(=O)[nH]1)Cc1cccs1`: > 50.9 µg/mL; for `O=C(/C=C/c1ccc(F)cc1)NC(=S)Nc1ccccc1`: 1.3 µg/mL (≈ 4.33 µM).
Consider `COc1ccccc1NS(=O)(=O)c1ccc(C(=O)NCc2ccc(S(N)(=O)=O)cc2)cc1`, for which the solubility (kinetic) is 20.3 µg/mL (≈ 42.7 µM).
Take `CC1CCC2C(C1)Nc1c(C(=O)O)cccc1C2(C)C` (configuration not stated): the kinetic solubility is > 41 µg/mL.
Then `Nc1cc(=O)[nH]c(=O)n1-c1ccc(Cl)cc1`, with > 35.6 µg/mL.
The same measure for `O=c1[nH]cccc1-c1nc2ccccc2n1Cc1ccccc1F`: 3.9 µg/mL (≈ 12.2 µM); for `CC(=O)Nc1ccc(S(=O)(=O)N(C)CC(=O)NCCOc2ccccc2)cc1`: > 60.8 µg/mL; for `COc1cc2c(cc1OC)CN(C(=O)c1cccc([N+](=O)[O-])c1)CC2`: 36 µg/mL (≈ 105 µM).
The same measure for `CCOC(=O)c1cc(S(=O)(=O)N2CCCC2)cn1C`: 22.4 µg/mL (≈ 78.2 µM); for `COCCn1c(N)c(Sc2ccccc2)c(=O)[nH]c1=O`: 41.4 µg/mL (≈ 141 µM).
As to `Cc1ccc(C(=O)Nc2cccc(-c3nc4ncccc4o3)c2)cc1`, the solubility (kinetic) stood at 1.3 µg/mL (≈ 3.95 µM).
Then `COc1ccc(CCCc2nc3ccccc3[nH]2)cc1`, with 37.4 µg/mL (≈ 140 µM); and `COc1ccc2cc(C(=O)N3CCN(c4ccccc4F)CC3)[nH]c2c1`, with 1.9 µg/mL (≈ 5.38 µM).
As for `CCc1cc(=O)oc2cc(OCC(=O)N3CCC(C(N)=O)CC3)ccc12`, the solubility (kinetic) was > 53.8 µg/mL.
Then `CC(=O)Nc1ccc(CCc2nc3ccccc3[nH]2)cc1`, with > 41.9 µg/mL.
Then `COc1c(C)cc(C(=O)C2CCCN(C(=O)c3cc4nc(C)cc(C)n4n3)C2)cc1C` (configuration not stated), with > 63.1 µg/mL; and `CN1C(=O)NC(c2ccccc2Cl)C2=C1CC(C)(C)CC2=O` (configuration not stated), with > 47.8 µg/mL.
Then `O=C(Nc1ccccc1C(=O)Nc1ccccc1)c1ccco1`, with 0.9 µg/mL (≈ 2.94 µM); and `CC(C)N=c1cc2n(-c3ccc(Cl)cc3)c3ccccc3nc-2cc1Nc1ccc(Cl)cc1`, with 0.3 µg/mL (≈ 0.634 µM); and `COc1ccc(C(=O)NCC(=O)N2CCCC(C)C2)cc1OC` (configuration not stated), with > 48.1 µg/mL.
The compound `O=C(/C=C/c1ccccc1)N(Cc1cccc(Cl)c1)C1CCS(=O)(=O)C1` (configuration not stated) yielded a kinetic solubility of 14.1 µg/mL (≈ 36.2 µM).
The same measure for `COc1cccc(C(=O)NC2CCNCC2)c1`: 31.4 µg/mL (≈ 134 µM); for `N/C(=N\OC(=O)CC1CCCCC1)c1ccc(Cl)cc1`: 0.9 µg/mL (≈ 3.05 µM); for `Cc1cccc(NC(=O)c2cc3c(s2)-c2c(C)cccc2OC3)n1`: < 0.4 µg/mL.
The same measure for `O=C(Nc1ccc(F)cc1)Oc1ccccc1N1CCOCC1`: 8.1 µg/mL (≈ 25.6 µM); for `CCC(C)[C@H](NC(=O)N1CCCCCC1)C(=O)O` (some centres not stated): > 38.5 µg/mL; for `CCC(=O)Nc1cccc2cccnc12`: 25 µg/mL (≈ 125 µM).

The term kinetic solubility denotes solubility judged after dilution from a stock solution rather than from solid.
